# Reference: patent US20220025003A1, “REAGENTS AND METHODS FOR CONTROLLING PROTEIN FUNCTION AND INTERACTION” (University of Washington, priority 2018, published 2022)
# Tests used:
# GFP, CD95 and CXCR4 = assay: 3-gene experiment (GFP, CD95, CXCR4) by RT-qPCR; type: cell-based; conditions: 10 μM danoprevir, 1 μM grazoprevir, 1 μM asunaprevir
# Text: Cells were harvested on day 5 as described above for other samples to be analyzed to qPCR.
# NS3a in NIH3T3 cells [1] = assay: Confocal microscopy for colocalization analysis (fixed cells); type: cell-based; conditions: for DNCR2-EGFP colocalization with mitochondrial Tom20-mCherry-NS3a: 10 μM drug, 1 h
# [2] = tested on: RAS/ERK pathway in HEK293 cells; assay: Activation of NS3a-CDAR, phospho-ERK blot; type: cell-based; conditions: 10 μM drug, 60 min
# Description: 18-24 hours prior to transfection, 3.0×10^5 HEK293 cells were plated onto poly-D-lysine 12 well plates. Immediately prior to transfection, media was aspirated and cells were washed with 1 mL of pre-warmed (37° C.) PBS, then serum starved with FBS-free DMEM. Following serum starvation, cells were transfected with 1 μg of FLAG-tagged NS3a-CDAR, BH3-NS3a-CDAR, or an empty pCDNA5 vector. Transfected cells were allowed to serum stave for 18-20 hours prior to drug treatment. For drug treatment, serum-free media was prepared with DMSO or 10 μM of a drug. Media was aspirated, washed once with pre-warmed DPBS, then treated with drug/DMSO media for the requisite amount of time. Media was subsequently aspirated and the cells were washed twice with 1 mL chilled PBS, then lysed with 75 μL Mod. RIPA buffer (50 mM Tris, pH 7.8, 1% IGEPAL CA-630, 150 mM NaCl, 1 mM EDTA, 2 mM Na3VO4, 30 mM NaF, Pierce Protease Inhibitor Tablet). Cleared lysates were subjected to SDS-PAGE and transferred to nitrocellulose. Blocking and antibody incubations were done in TBS with 0.1% Tween-20 (v/v) and blocking buffer (Odyssey). Primary antibodies were all purchased from Cell Signaling Technologies and were diluted as follows: Total ERK (1:2500, #9107), phosphorylated ERK (1:2500, #4370), FLAG (1:2,500, #D6W5B). Blots were washed three times in TBS with 0.1% Tween-20. Antibody binding was detected by using near-infrared-dye-conjugated secondary antibodies and visualized on the LI-COR Odyssey scanner. Blots were quantified via densitometry with Image Studio (LI-COR).
# NS3a in NIH3T3 cells [3] = assay: Confocal microscopy for colocalization analysis (fixed cells); type: cell-based; conditions: 10 μM drug, 1 h
# Description: A Leica SP8× system was used for confocal microscopy. […] TagBFP emission was recorded on a PMT detector, and EGFP and mCherry™ were detected by separate HyD™ detectors.
# Colocalization experiments were performed in NIH3T3 cells (Flp-In-3T3, Thermo Fisher Scientific). For fixed-cell experiments, cells were plated at 3×10^4 cells/mL on sterile glass coverslides placed in 12-well culture plates. […] One day after transfection, cells were treated with drug or DMSO and fixed. Drug additions were performed by exchanging the media for DMEM+10% v/v FBS plus drug. To fix, cells were washed once with DPBS (Thermo Fisher Scientific), then incubated with 4% v/v paraformaldehyde in DPBS for 15 minutes. After washing twice with DPBS, coverslides with cells were removed from the plate and mounted on glass slides using Fluoromount-G (SouthernBiotech).
# Colocalization of NS3a and DNCR1 at the plasma membrane, nucleus, mitochondria and Golgi was performed with two sets of constructs, with either NS3a or DNCR1 as the immobilized component. mCherry™-NS3a was used with Tom20-DNCR1-EGFP, DNCR1-EGFP-Giantin, and 3×NLS-DNCR1-EGFP. […] Colocalization was analyzed after 1 h of 10 μM drug or equal volume DMSO treatment.
# All images were analyzed using ImageJ. […] EGFP fluorescence was quantified in the ROI over the timecourse. […] The cytoplasmic fluorescence was normalized to the value in the first and last frame for each cell. […]
# [4] = tested on: GFP reporter gene in HEK293T cells; assay: dciCas9-mediated transcription; type: cell-based; conditions: 10 μM A115 and 10 μM grazoprevir
# Description: For FACS analysis, 10,000 single cell events were collected for each of the samples run. […] The gathered FACS data were analyzed using FlowJo (v.10.1).
# CXCR4 = assay: cells; conditions: Homo sapiens, read-out: EC50 (CXCR4 expression)
# [5] = tested on: mCherry reporter gene in HEK293T cells; assay: Chemically-disruptable Gal4(DBD)-NS3a(H1)/ANR-VPR transcriptional regulation; type: cell-based; conditions: 1 μM drug, 24 hours
# Description: Cells were subsequently transfected with 1 μg of the Gal4 reporter plasmid (UAS-mCherry™/CMV-Gal4-NS3a(H1)-P2A-ANR-Myc-BFP-VPR-NLS) in OptiMem™. […] Supernatant was subsequently removed and the cells were re-suspended in 400 μL DPBS and analyzed on a FACS LSRII (BD Biosciences).
# For Gal4/NS3a-CDP mediated transcriptional activation FACS experiments, 10,000 single cell events were collected for each of the samples run. […] The gathered FACS data were analyzed using FlowJo™ (v.10.1).
# HeLa cells = assay: Widefield microscopy for signaling phenotype analysis; type: cell-based; conditions: EGFP-DNCR2-TIAM, BFP-GNCR1-LARG and NS3a-CAAX in HeLa cells
# Description: Widefield images were collected in an environmental chamber with humidity control, 37° C., and 5% CO2 on a Leica DMi8 automated fluorescence microscope. Cells were plated on glass-bottomed 96-well plates (Cellvis). Plates were treated with 10 μg/mL bovine fibronectin (Sigma Aldrich) for 1 hour and washed once with PBS.
# The cell line used was TRex™-HeLa (ThermoFisher Scientific), into which Lifeact-mCherry™ was stably integrated into the doxycycline-regulated Flp-In site by co-transfection of the pCDNA5-FRT/TO-Lifeact-mCherry™ vector with the Flp recombinase plasmid pOG44 (ThermoFisher Scientific) according to manufacturer's protocols. Lifeact-mCherry™ was induced by addition of 1 μg/mL doxycycline to culture media. For expression of signaling effector proteins, 1 day prior to imaging, 5×10^6 cells were transiently transfected with 10 μg DNA in a 100 μL electroporation tip using a Neon transfection system (ThermoFisher Scientific) according to manufacturer's recommendations for HeLa cells. 5×10^3 cells were plated in each well of the 96-well plate used for imaging. Cells recovered in complete DMEM with 10% FBS overnight. […] For Rac/Rho regulation, the construct PB-NS3a-CAAX-IRES-EGFP-DNCR2-TIAM-P2a-BFP-GNCR1-LARG was used, with images collected for the mCherry™ (Lifeact) and EGFP (DNCR2-TIAM) channels. […]
# NS3a protease = target: T1, NS3a protease (Hepatitis C virus genotype 1b, UniProt Q9WMX2, A1176V/C1042I/E1056D/L1047A/L1120M/Q1112P/R1052K/V1062L/V1196I); assay: NS3a protease inhibition FRET assay; type: biochemical; conditions: ANR-GST fusion, FRET-based protease assay
# T1 construct: SNAPtag-NS3a-His6; made in house; host or cells: E. coli BL21(DE3)
# Description: The potency of ANR against NS3a protease was determined via a FRET assay. Titrations of ANR-GST (3-fold serial dilutions starting at 10 μM) were added to a black 96-well plate (Corning, product number 3720) containing 50 nM SNAPtag-NS3a. Reactions were incubated with NS3a-SNAPtag at room temperature for 1 hour. To each well was simultaneously added substrate M-2235 (Bachem) to a final concentration of 5 μM and reactions were monitored by measuring the fluorescence intensity every minute for 30 minutes at 22° C. on a Perkin Elmer EnVision™ fluorometer (excitation, 360 nm; emission 460 nm). Each measurement was carried out in triplicate. Slopes of the fluorescence increase were compared to a no-protease control. A nonlinear regression model was used to fit curves using GraphPad™ Prism.
# NS3a = target: T2, NS3a (Hepatitis C virus genotype 1b, UniProt Q9WMX2, A1176V/E1056D/L1047A/L1120M/Q1112P/R1052K/V1062L/V1196I); assay: Fluorescence polarization binding assay (FB50) with FAM-ANR
# T2 construct: Avi-His6-NS3a; the text calls the FP protein non-biotinylated) (N); made in house; host or cells: E. coli BL21 (DE3)
# Description: (§1) The affinities of the NS3a variants for ANR were determined using a fluorescence polarization assay. Fluorescently labeled ANR (FAM-ANR, FIG. 5B) was obtained as a crude mixture from GenScript™ and purified by HPLC. Titrations of recombinant NS3a variants (3-fold serial dilutions, starting at 5 μM) were diluted in FP-Buffer (50 mM HEPES, pH 7.8, 100 mM NaCl, 5 mM DTT, 1% Glycerol, 0.01% Tween, 5% v/v DMSO). These dilutions were added to a wells containing FAM-ANR (final concentration=10 nM). FAM-ANR/NS3a solutions were incubated at room temperature in the dark for 1 hour. Fluorescence polarization was measured on a Perkin Elmer EnVision™ fluorometer (excitation, 495 nm; emission 520 nm). All measurements were carried out in black 96-well plates (Corning, product #: 3720) and run in triplicate. Anisotropy values were obtained and a nonlinear regression model was used to determine binding constants in GraphPad™ Prism.
# NS3a* = target: T3, NS3a* (Hepatitis C virus genotype 1a, UniProt P27958, C1073S/C1078L/C1185S/I1043Q/I1044E/I1098T/L1039E/L1040E/L1047Q/L1179I/N1200S/P1112Q/Q1106K/T1100M/T1173A); assay: as above
# T3 construct: His6-NS3a; made in house; host or cells: E. coli BL21 (DE3)
# Description: as §1
Compound,"transcriptional output state in 3-gene system (GFP, CD95 and CXCR4)",DNCR2-EGFP colocalization with mitochondrial Tom20-mCherry-NS3a (NS3a in NIH3T3 cells [1]),phospho-ERK levels in cells expressing NS3a-CDAR [2],Colocalization of DNCR1-EGFP and NS3a-mCherry (NS3a in NIH3T3 cells [3]),GFP expression on co-administration with A115 [4],Colocalization of DNCR2-EGFP and GNCR1-BFP with NS3a-mCherry-CAAX (NS3a in NIH3T3 cells [1]; 5 μM drug),"Colocalization of NS3a-mCherry with GNCR1-BFP-CAAX or Tom20-DNCR2-EGFP (NS3a in NIH3T3 cells [1]; 5 μM drug, 15 min)",EC50 (CXCR4) [nM],mCherry expression after drug treatment [5],cell shape change (HeLa cells),apparent IC50 against NS3a activity (NS3a protease),binding to NS3a (NS3a),affinity for NS3a* (NS3a*)
C=C[C@@H]1C[C@]1(NC(=O)[C@@H]1C[C@@H](Oc2ncc(OC)c3ccc(Cl)cc23)CN1C(=O)[C@@H](NC(=O)OC(C)(C)C)C(C)(C)C)C(=O)NS(=O)(=O)C1CC1 [asunaprevir],no gene expression,neither grazoprevir nor asunaprevir induced DNCR2-EGFP colocalization,robust increase in phospho-ERK levels,much lower correlation,–,–,–,–,–,–,–,–,–
C=C[C@@H]1C[C@]1(NC(=O)[C@@H]1C[C@@H]2CN1C(=O)[C@H](C(C)(C)C)NC(=O)O[C@@H]1C[C@H]1CCCCCc1nc3ccc(OC)cc3nc1O2)C(=O)NS(=O)(=O)C1CC1 [grazoprevir],CXCR4 expression under control of GNCR1,neither grazoprevir nor asunaprevir induced DNCR2-EGFP colocalization,robust increase in phospho-ERK levels,much lower correlation,reversed,GNCR1/NS3a colocalization,exclusively colocalized NS3a-mCherry™ to plasma membrane-targeted GNCR1-BFP-CAAX,0.16 ± 0.03,decreased mCherry™ expression to background levels,caused cell contraction,–,–,–
"genetically-encoded peptide inhibitor of NS3a, GELDELVYLLDGPGYDPIHSD (SEQ ID NO:14); tested as ANR-GST and FAM-ANR",–,–,–,–,–,–,–,–,–,–,less than the concentration of NS3a protease used in the assay,binds tightly,very low affinity
